Counter-ions that a name gives are not always drawn.
Tests used:
[1] = biological target: T1, recombinant human arginase 1 (hARG1) (Homo sapiens, UniProt P05089); assay: Human arginase inhibition assay (colorimetric urea detection), arginase 1; format: biochemical; settings: IC50 class; hydrochloride salts; 1 h at 37° C., pH 7.4, 10 mM L-arginine, 200 μM MnCl2; read-out: Activity Class (ARG I)
T1 construct: made in house; host or cells: E. coli
T1 sequence (P05089 1-322): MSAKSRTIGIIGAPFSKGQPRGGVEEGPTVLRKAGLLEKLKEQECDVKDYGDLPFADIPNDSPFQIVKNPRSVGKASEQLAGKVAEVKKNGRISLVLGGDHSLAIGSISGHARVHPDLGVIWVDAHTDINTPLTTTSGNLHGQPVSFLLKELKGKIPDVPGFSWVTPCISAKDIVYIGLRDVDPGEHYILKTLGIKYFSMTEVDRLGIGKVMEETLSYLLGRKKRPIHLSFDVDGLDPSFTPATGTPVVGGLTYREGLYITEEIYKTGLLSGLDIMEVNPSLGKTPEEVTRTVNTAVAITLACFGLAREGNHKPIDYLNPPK
Method: (§1) Human Arginase Inhibition Assay
(§2) The inhibitory activities of the compounds of the invention were assessed using recombinant human arginases 1 and 2. Both enzymes were biosynthesized using a prokaryotic expression system (E. coli) and purified by fast protein liquid chromatography (FPLC). The compounds were screened in 96-well plates at the total reaction volume of 100 μL. Briefly, recombinant enzymes were incubated with the tested compounds for 1 h at 37° C. in the reaction buffer (100 mM sodium phosphate buffer, 130 mM NaCl, 1 mg/mL BSA, pH 7.4) containing substrate (L-arginine hydrochloride, 10 mM for hARG1 and 20 mM for hARG2) and cofactor (200 μM MnCl2). The assay is based on the detection of urea, which is generated during the conversion of L-arginine into L-omithine catalyzed by ARG1 or ARG2 (Baggio et al. J Pharmacol. Exp. Ther. 1999, 290, 1409-1416). The colorimetrically detectable product was developed by adding a mixture of reagent A (4 mM oPA, 50 mM boric acid, 1 M sulfuric acid, 0.03% Brij-35) and reagent B (4 mM NED, 50 mM boric acid, 1 M sulfuric acid, 0.03% Brij-35) in equal proportions. The absorbance for each well was measured at 515 nm and the enzyme inhibition was calculated. The urea production in the absence of any tested compound was considered as maximal enzyme activity. The absorbance at the absence of arginase (background) was subtracted from all the values. The normalized values were analyzed using GraphPad Prism 7.0 software by plotting inhibition curves and determining the IC50 values.
(§3) The inhibitory activity classes of the hydrochloride salts of the exemplary compounds according to the invention are presented in Table 1

[2] = biological target: T2, recombinant human arginase 2 (hARG2) (Homo sapiens, UniProt P78540); assay: Human arginase inhibition assay (colorimetric urea detection), arginase 2; format: biochemical; settings: IC50 class; hydrochloride salts; 1 h at 37° C., pH 7.4, 20 mM L-arginine, 200 μM MnCl2; read-out: Activity Class (ARG II)
T2 construct: made in house; host or cells: E. coli
T2 sequence (P78540 23-354): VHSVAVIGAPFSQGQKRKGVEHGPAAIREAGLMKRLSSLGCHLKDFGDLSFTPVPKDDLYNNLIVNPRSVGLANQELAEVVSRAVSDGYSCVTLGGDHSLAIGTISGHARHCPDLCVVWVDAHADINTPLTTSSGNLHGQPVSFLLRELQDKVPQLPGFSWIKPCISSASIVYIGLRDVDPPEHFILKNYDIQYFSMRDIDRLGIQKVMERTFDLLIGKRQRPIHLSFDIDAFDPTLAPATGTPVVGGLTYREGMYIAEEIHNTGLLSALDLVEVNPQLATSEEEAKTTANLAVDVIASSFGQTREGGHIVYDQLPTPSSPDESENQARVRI
Method: as §1, §2, §3

[3] = biological target: T3, intracellular arginase in macrophages isolated from murine bone marrow (BMDM) (Mus musculus, UniProt Q61176); assay: Cell-based assay: intracellular arginase in bone marrow derived macrophages (BMDM), urea in culture medium; design: species or system murine (C57BL/6 mice); settings: IC50 class; M2-polarised murine BMDM (M-CSF, TGF-β, IL-4), urea in medium after 24 hours
T3 construct: endogenous in cells; host or cells: primary bone-marrow-derived macrophages from C57BL/6 mice, cultured with M-CSF, TGF-β and IL-4
T3 sequence (Q61176 1-323): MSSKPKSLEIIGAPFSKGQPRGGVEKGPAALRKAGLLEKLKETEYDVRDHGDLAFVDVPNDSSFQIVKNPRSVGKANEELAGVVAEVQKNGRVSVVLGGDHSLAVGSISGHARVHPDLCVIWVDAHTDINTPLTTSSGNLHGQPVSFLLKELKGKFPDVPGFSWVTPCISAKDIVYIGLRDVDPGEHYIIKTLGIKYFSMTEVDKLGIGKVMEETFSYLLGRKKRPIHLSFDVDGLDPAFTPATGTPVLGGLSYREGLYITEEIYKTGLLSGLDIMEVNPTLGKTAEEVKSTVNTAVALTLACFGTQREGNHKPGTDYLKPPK
Method: To illustrate the lower cellular activity of the compounds according to the invention versus arginase inhibitors disclosed in U.S. Ser. No. 10/391,077 B2, the selected examples were tested in cell-based assay using murine primary macrophages. Lower intracellular activity observed for the compounds according to the invention may potentially result in lower hepatotoxicity compared to the arginase inhibitors disclosed in U.S. Ser. No. 10/391,077 B2.
Efficacy of Selected Examples Towards Intracellular Arginase in Macrophages Isolated from Murine Bone Marrow—Bone Marrow Derived Macrophages (BMDM)
Murine bone marrow-derived or peritoneal macrophages comprise a convenient in vitro model that enables differentiation of these cells towards M1 or M2 macrophages and further use for the study.
Materials & Methods: The assay was performed according to modified literature protocol (Pineda-Torra I et al., Methods Mol Biol. 2015; 1339:101-9. Mia S et al., Scand J Immunol. 2014 May; 79(5):305-14). The femurs and tibias were isolated from C57BL/6 mice. Bones were cleaned from all attached tissues by using a sterile swab without affecting the bone structure. The sides of the bones were cut off and flush with cold sterile PBS by using 26-G needle S into a 50 mL sterile tube with a cell strainer (Falcon™, Cat. No. U00149), until the bone cavity appeared white. Then, the cells were centrifuged (5 min at 500×G, 4° C.), washed twice with PBS and counted. Cells were plated in Petri dish in density of 1×10^6/mL and cultured in DMEM (Gibco, Cat. No. 31331-029) with 10% FBS, 1% pen-strep and 50 ng/mL M-CSF (PeproTech, Cat. No. 315-02), (37° C., 5% CO2). After five days cells were subcultured into P96 plate (BD, Cat. No. 353072) at the density of 64,000 cells/well in medium supplemented with 50 ng/mL M-CSF, 20 ng/mL TGF-β and 30 ng/mL IL-4 (Biomibo Cat. No. 214-1). One day later exemplary compounds (dissolved in PBS) were added in several different concentrations and 24 hours later the level of urea was measured in the culture medium in each well (Jung D et al., Clin Chem. 1975, 21(8):1136-40). The concentration of urea in the absence of any compound was considered as the maximum enzyme activity. The absorbance of cell culture media (background) was subtracted from all the values.
The IC50 values were calculated using GraphPad Prism 7.0. and assigned into the following classes: A=10-100 μM; and B>100 μM.

Row | Compound | IC50 [1] | IC50 [2] | IC50 [3]
1 | CC(C)(C)[C@H](N)C(=O)NC[C@@H]1CC[C@@H](CCB(O)O)C[C@]1(N)C(=O)O [Example 12, (1R,2S,5R)-1-Amino-2-(((S)-2-amino-3,3-dimethylbutanamido)methyl)-5-(2-boronoethyl)cyclohexane-1-carboxylic acid dihydrochloride] | 1 to 99 nM | 200 to 299 nM | > 100000 nM
2 | CC(C)[C@H](N)C(=O)NC[C@@H]1CC[C@@H](CCB(O)O)C[C@]1(N)C(=O)O [Example 2, (1R,2S,5R)-1-Amino-2-(((S)-2-amino-3-methylbutanamido)methyl)-5-(2-boronoethyl)cyclohexane-1-carboxylic acid dihydrochloride] | 100 to 199 nM | 200 to 299 nM | 10000 to 100000 nM
3 | N=C(N)NCCC[C@H](N)C(=O)NC[C@@H]1CC[C@@H](CCB(O)O)C[C@]1(N)C(=O)O [Example 13, (1R,2S,5R)-1-Amino-2-(((S)-2-amino-5-guanidinopentanamido)methyl)-5-(2-boronoethyl)cyclohexane-1-carboxylic acid trihydrochloride] | 1 to 99 nM | > 300 nM | > 100000 nM
4 | N[C@@H](Cc1ccccc1)C(=O)NC[C@@H]1CC[C@@H](CCB(O)O)C[C@]1(N)C(=O)O [Example 3, (1R,2S,5R)-1-Amino-2-(((S)-2-amino-3-phenylpropanamido)methyl)-5-(2-boronoethyl)cyclohexane-1-carboxylic acid dihydrochloride] | > 300 nM | > 300 nM | > 100000 nM
5 | N[C@@H](CC(=O)O)C(=O)NC[C@@H]1CC[C@@H](CCB(O)O)C[C@]1(N)C(=O)O [Example 29, (1R,2S,5R)-1-Amino-2-(((S)-2-amino-3-carboxypropanamido)methyl)-5-(2-boronoethyl)cyclohexane-1-carboxylic acid dihydrochloride] | > 300 nM | > 300 nM | –
6 | COC(=O)[C@@]1(N)C[C@H](CCB(O)O)CC[C@H]1CNC(=O)[C@@H](N)C(C)C [Example 32, (2-((1R,3R,4S)-3-Amino-4-(((S)-2-amino-3-methylbutanamido)methyl)-3-(methoxycarbonyl)cyclohexyl)ethyl)boronic acid dihydrochloride] | > 300 nM | > 300 nM | –
7 | N[C@@H](CCC(=O)O)C(=O)NC[C@@H]1CC[C@@H](CCB(O)O)C[C@]1(N)C(=O)O [Example 30, (1R,2S,5R)-1-Amino-2-(((S)-2-amino-4-carboxybutanamido)methyl)-5-(2-boronoethyl)cyclohexane-1-carboxylic acid dihydrochloride] | > 300 nM | > 300 nM | –
8 | CCN[C@]1(C(=O)O)C[C@H](CCB(O)O)CC[C@H]1CNC(=O)[C@H](C)N [Example 35, (1R,2S,5R)-2-(((S)-2-Aminopropanamido)methyl)-5-(2-boronoethyl)-1-(ethylamino)cyclohexane-1-carboxylic acid dihydrochloride] | > 300 nM | > 300 nM | –
9 | N[C@@H](Cc1c[nH]cn1)C(=O)NC[C@@H]1CC[C@@H](CCB(O)O)C[C@]1(N)C(=O)O [Example 8, (1R,2S,5R)-1-Amino-2-(((S)-2-amino-3-(1H-imidazol-4-yl)propanamido)methyl)-5-(2-boronoethyl)cyclohexane-1-carboxylic acid trihydrochloride] | 100 to 199 nM | > 300 nM | –

Results, then the compound that gave them:

Row | IC50 [1] | IC50 [2] | IC50 [3] | Compound
10 | 1 to 99 nM | > 300 nM | > 100000 nM | CC[C@H](C)[C@H](N)C(=O)NC[C@@H]1CC[C@@H](CCB(O)O)C[C@]1(N)C(=O)O [Example 10, (1R,2S,5R)-1-Amino-2-(((2S,3S)-2-amino-3-methylpentanamido)methyl)-5-(2-boronoethyl)cyclohexane-1-carboxylic acid dihydrochloride]
11 | 1 to 99 nM | > 300 nM | > 100000 nM | NCC(=O)NC[C@@H]1CC[C@@H](CCB(O)O)C[C@]1(N)C(=O)O [Example 4, (1R,2S,5R)-1-Amino-2-((2-aminoacetamido)methyl)-5-(2-boronoethyl)cyclohexane-1-carboxylic acid dihydrochloride]
12 | 1 to 99 nM | 200 to 299 nM | 10000 to 100000 nM | CSCC[C@H](N)C(=O)NC[C@@H]1CC[C@@H](CCB(O)O)C[C@]1(N)C(=O)O [Example 17, (1R,2S,5R)-1-Amino-2-(((S)-2-amino-4-(methylthio)butanamido)methyl)-5-(2-boronoethyl)cyclohexane-1-carboxylic acid dihydrochloride]
13 | 1 to 99 nM | > 300 nM | > 100000 nM | N[C@]1(C(=O)O)C[C@H](CCB(O)O)CC[C@H]1CNC(=O)[C@@H]1CCCN1 [Example 5, (1R,2S,5R)-1-Amino-5-(2-boronoethyl)-2-(((S)-pyrrolidine-2-carboxamido)methyl)cyclohexane-1-carboxylic acid dihydrochloride]
14 | 1 to 99 nM | > 300 nM | > 100000 nM | NCCCC[C@H](N)C(=O)NC[C@@H]1CC[C@@H](CCB(O)O)C[C@]1(N)C(=O)O [Example 9, (1R,2S,5R)-1-Amino-5-(2-boronoethyl)-2-(((S)-2,6-diaminohexanamido)methyl)cyclohexane-1-carboxylic acid trihydrochloride]

— patent publication US12612420B2, “Arginase inhibitors and methods of use thereof” (Molecure S.A., priority 2020, dated 2026)
